What was measured:
Experiment in all cases: NCI-60 five-dose SRB assay
Assay type in all cases: cell-based
M14 = settings: Homo sapiens; M14, Melanoma, five-dose test
Procedure: (§1) The anticancer screening of target compounds over a full panel of 60 human cancer cell lines was carried out using Sulforhodamine B (SRB) assay at the National Cancer Institute (NCI), Bethesda, Maryland, USA, employing the standard protocol.

BT-549 = settings: Homo sapiens; BT-549, Breast cancer, five-dose test
Procedure: as §1

SN12C = settings: Homo sapiens, Renal cancer, five-dose test
Procedure: as §1

MALME-3M = settings: Homo sapiens, Melanoma, five-dose test
Procedure: as §1

T-47D = settings: Homo sapiens, T47D, Breast cancer, five-dose test
Procedure: as §1

LOX IMVI = settings: Homo sapiens, Melanoma, five-dose test
Procedure: as §1

MDA-MB-435 = settings: Homo sapiens; MDA-MB-435, Melanoma, five-dose test
Procedure: as §1

TK-10 = settings: Homo sapiens; TK-10, Renal cancer, five-dose test
Procedure: as §1

SR = settings: Homo sapiens, Leukemia, five-dose test
Procedure: as §1

OVCAR-3 = settings: Homo sapiens; OVCAR-3, Ovarian cancer, five-dose test
Procedure: as §1

CCRF-CEM = settings: Homo sapiens, Leukemia, five-dose test
Procedure: as §1

OVCAR-8 = settings: Homo sapiens; OVCAR-8, Ovarian cancer, five-dose test
Procedure: as §1

HCC-2998 = settings: Homo sapiens; HCC-2998, Colon cancer, five-dose test
Procedure: as §1

HOP-92 = settings: Homo sapiens; HOP-92, NSCL cancer, five-dose test
Procedure: as §1

OVCAR-4 = settings: Homo sapiens; OVCAR-4, Ovarian cancer, five-dose test
Procedure: as §1

ACHN = settings: Homo sapiens, Renal cancer, five-dose test
Procedure: as §1

SF-295 = settings: Homo sapiens; SF-295, CNS cancer, five-dose test
Procedure: as §1

HCT-15 = settings: Homo sapiens; HCT-15, Colon cancer, five-dose test
Procedure: as §1

MCF7 = settings: Homo sapiens; MCF7, Breast cancer, five-dose test
Procedure: as §1

HS 578T = settings: Homo sapiens, Breast cancer, five-dose test
Procedure: as §1

UO-31 = settings: Homo sapiens; UO-31, Renal cancer, five-dose test
Procedure: as §1

COLO 205 = settings: Homo sapiens; COLO 205, Colon cancer, five-dose test
Procedure: as §1

SK-MEL-28 = settings: Homo sapiens; SK-MEL-28, Melanoma, five-dose test
Procedure: as §1

SW-620 = settings: Homo sapiens; SW-620, Colon cancer, five-dose test
Procedure: as §1

IGROV1 = settings: Homo sapiens, IGROV-1; IGROV1, Ovarian cancer, five-dose test
Procedure: as §1

U251 = settings: Homo sapiens, U-251; U251, CNS cancer, five-dose test
Procedure: as §1

DU-145 = settings: Homo sapiens; DU-145, Prostate cancer, five-dose test
Procedure: as §1

786-0 = settings: Homo sapiens; 786-0, Renal cancer, five-dose test
Procedure: as §1

SF-539 = settings: Homo sapiens; SF-539, CNS cancer, five-dose test
Procedure: as §1

HCT-116 = settings: Homo sapiens; HCT-116, Colon cancer, five-dose test
Procedure: as §1

SF-268 = settings: Homo sapiens; SF-268, CNS cancer, five-dose test
Procedure: as §1

SNB-75 = settings: Homo sapiens; SNB-75, CNS cancer, five-dose test
Procedure: as §1

NCI-H522 = settings: Homo sapiens; NCI-H522, NSCL cancer, five-dose test
Procedure: as §1

EKVX = settings: Homo sapiens, NSCL cancer, five-dose test
Procedure: as §1

UACC-257 = settings: Homo sapiens; UACC-257, Melanoma, five-dose test
Procedure: as §1

SK-OV-3 = settings: Homo sapiens; SK-OV-3, Ovarian cancer, five-dose test
Procedure: as §1

NCI-H460 = settings: Homo sapiens; NCI-H460, NSCL cancer, five-dose test
Procedure: as §1

SK-MEL-5 = settings: Homo sapiens; SK-MEL-5, Melanoma, five-dose test
Procedure: as §1

OVCAR-5 = settings: Homo sapiens; OVCAR-5, Ovarian cancer, five-dose test
Procedure: as §1

KM12 = settings: Homo sapiens; KM12, Colon cancer, five-dose test
Procedure: as §1

HL-60(TB) = settings: Homo sapiens, Leukemia, five-dose test
Procedure: as §1

CAKI-1 = settings: Homo sapiens; CAKI-1, Renal cancer, five-dose test
Procedure: as §1

NCI-H322M = settings: Homo sapiens, NSCL cancer, five-dose test
Procedure: as §1

COc1ccc2nc(Nc3cccc(NC(=O)c4ccc(CN5CCN(C)CC5)c(C(F)(F)F)c4)c3)ccc2c1 [Compound 16a, N-(3-((6-methoxyquinolin-2-yl)amino)phenyl)-4-((4-methylpiperazin-1-yl)methyl)-3-(trifluoromethyl)benzamide]
GI50 (M14): 3630 nM | GI50 (BT-549): 5580 nM | GI50 (SN12C): 5490 nM | GI50 (MALME-3M): 4620 nM | GI50 (T-47D): 4120 nM | GI50 (LOX IMVI): 1550 nM | GI50 (MDA-MB-435): 5730 nM | GI50 (TK-10): 6520 nM | GI50 (SR): 1310 nM | GI50 (OVCAR-3): 5890 nM | GI50 (CCRF-CEM): 2150 nM | GI50 (OVCAR-8): 5820 nM | GI50 (HCC-2998): 5250 nM | GI50 (HOP-92): 1360 nM | GI50 (OVCAR-4): 4320 nM | GI50 (ACHN): 4880 nM | GI50 (SF-295): 3410 nM | GI50 (HCT-15): 1180 nM | GI50 (MCF7): 1370 nM | GI50 (HS 578T): 4140 nM | GI50 (UO-31): 5680 nM | GI50 (COLO 205): 5780 nM | GI50 (SK-MEL-28): 5330 nM | GI50 (SW-620): 5890 nM | GI50 (IGROV1): 6220 nM | GI50 (U251): 3770 nM | GI50 (DU-145): 5240 nM | GI50 (786-0): 5000 nM | GI50 (SF-539): 2080 nM | GI50 (HCT-116): 2410 nM | GI50 (SF-268): 5200 nM | GI50 (SNB-75): 684 nM | GI50 (NCI-H522): 4880 nM | GI50 (EKVX): 4530 nM | GI50 (UACC-257): 4350 nM | GI50 (SK-OV-3): 5990 nM | GI50 (NCI-H460): 1880 nM | GI50 (SK-MEL-5): 5100 nM | GI50 (OVCAR-5): 6100 nM | GI50 (KM12): 4050 nM | GI50 (HL-60(TB)): 5460 nM | GI50 (CAKI-1): 4900 nM | GI50 (NCI-H322M): 6060 nM

COc1cccc2nc(Nc3cccc(NC(=O)c4ccc(CN5CCCN(C)CC5)c(C(F)(F)F)c4)c3)ccc12 [Compound 14b, N-(3-((5-methoxyquinolin-2-yl)amino)phenyl)-4-((4-methyl-1,4-diazepan-1-yl)methyl)-3-(trifluoromethyl)benzamide]
GI50 (M14): 1810 nM | GI50 (BT-549): 2060 nM | GI50 (SN12C): 1630 nM | GI50 (MALME-3M): 1720 nM | GI50 (T-47D): 5430 nM | GI50 (LOX IMVI): 1680 nM | GI50 (MDA-MB-435): 1800 nM | GI50 (TK-10): 4910 nM | GI50 (OVCAR-3): 2140 nM | GI50 (CCRF-CEM): 1620 nM | GI50 (OVCAR-8): 2030 nM | GI50 (HCC-2998): 1710 nM | GI50 (OVCAR-4): 2670 nM | GI50 (ACHN): 1870 nM | GI50 (SF-295): 1740 nM | GI50 (HCT-15): 1620 nM | GI50 (MCF7): 1590 nM | GI50 (HS 578T): 2460 nM | GI50 (UO-31): 1740 nM | GI50 (COLO 205): 1810 nM | GI50 (SK-MEL-28): 1680 nM | GI50 (SW-620): 1750 nM | GI50 (IGROV1): 1810 nM | GI50 (U251): 1760 nM | GI50 (DU-145): 2190 nM | GI50 (786-0): 1720 nM | GI50 (SF-539): 1550 nM | GI50 (HCT-116): 1670 nM | GI50 (SF-268): 1770 nM | GI50 (SNB-75): 1520 nM | GI50 (NCI-H522): 1760 nM | GI50 (EKVX): 1720 nM | GI50 (UACC-257): 1860 nM | GI50 (SK-OV-3): 4330 nM | GI50 (NCI-H460): 1760 nM | GI50 (SK-MEL-5): 1710 nM | GI50 (OVCAR-5): 1710 nM | GI50 (KM12): 2490 nM | GI50 (HL-60(TB)): 1650 nM | GI50 (CAKI-1): 1720 nM | GI50 (NCI-H322M): 2120 nM

CN1CCCN(Cc2ccc(C(=O)Nc3cccc(Nc4ccc5c(O)cccc5n4)c3)cc2C(F)(F)F)CC1 [Compound 17b, N-(3-((5-hydroxyquinolin-2-yl)amino)phenyl)-4-((4-methyl-1,4-diazepan-1-yl)methyl)-3-(trifluoromethyl)benzamide]
GI50 (M14): 1890 nM | GI50 (BT-549): 1800 nM | GI50 (SN12C): 1830 nM | GI50 (MALME-3M): 1700 nM | GI50 (T-47D): 3460 nM | GI50 (LOX IMVI): 1630 nM | GI50 (MDA-MB-435): 1780 nM | GI50 (TK-10): 2800 nM | GI50 (OVCAR-3): 1970 nM | GI50 (CCRF-CEM): 2070 nM | GI50 (OVCAR-8): 2510 nM | GI50 (HCC-2998): 1800 nM | GI50 (HOP-92): 1640 nM | GI50 (OVCAR-4): 3830 nM | GI50 (ACHN): 1920 nM | GI50 (SF-295): 1670 nM | GI50 (HCT-15): 1930 nM | GI50 (MCF7): 1680 nM | GI50 (HS 578T): 1930 nM | GI50 (UO-31): 2040 nM | GI50 (COLO 205): 1830 nM | GI50 (SK-MEL-28): 1820 nM | GI50 (SW-620): 1950 nM | GI50 (IGROV1): 2560 nM | GI50 (U251): 2070 nM | GI50 (DU-145): 3270 nM | GI50 (786-0): 2060 nM | GI50 (SF-539): 1700 nM | GI50 (HCT-116): 1620 nM | GI50 (SF-268): 2140 nM | GI50 (SNB-75): 1320 nM | GI50 (NCI-H522): 1840 nM | GI50 (EKVX): 1820 nM | GI50 (UACC-257): 1600 nM | GI50 (SK-OV-3): 11100 nM | GI50 (NCI-H460): 1810 nM | GI50 (SK-MEL-5): 1720 nM | GI50 (OVCAR-5): 11400 nM | GI50 (KM12): 1980 nM | GI50 (HL-60(TB)): 2350 nM | GI50 (CAKI-1): 1790 nM | GI50 (NCI-H322M): 3270 nM

CN1CCCN(Cc2ccc(C(=O)Nc3cccc(Nc4ccc5cc(O)ccc5n4)c3)cc2C(F)(F)F)CC1 [Compound 18b, N-(3-((6-hydroxyquinolin-2-yl)amino)phenyl)-4-((4-methyl-1,4-diazepan-1-yl)methyl)-3-(trifluoromethyl)benzamide]
GI50 (M14): 12700 nM | GI50 (SN12C): 17300 nM | GI50 (MALME-3M): 12600 nM | GI50 (T-47D): 15800 nM | GI50 (LOX IMVI): 12100 nM | GI50 (MDA-MB-435): 10400 nM | GI50 (TK-10): 18500 nM | GI50 (SR): 1890 nM | GI50 (OVCAR-3): 16300 nM | GI50 (CCRF-CEM): 4940 nM | GI50 (OVCAR-8): 18900 nM | GI50 (HCC-2998): 16500 nM | GI50 (HOP-92): 10400 nM | GI50 (OVCAR-4): 15000 nM | GI50 (ACHN): 19700 nM | GI50 (SF-295): 17300 nM | GI50 (HCT-15): 16400 nM | GI50 (MCF7): 9830 nM | GI50 (HS 578T): 14800 nM | GI50 (UO-31): 15200 nM | GI50 (COLO 205): 18500 nM | GI50 (SK-MEL-28): 13900 nM | GI50 (SW-620): 14500 nM | GI50 (IGROV1): 17200 nM | GI50 (U251): 14800 nM | GI50 (DU-145): 16900 nM | GI50 (786-0): 16000 nM | GI50 (SF-539): 11300 nM | GI50 (HCT-116): 6510 nM | GI50 (SF-268): 17300 nM | GI50 (SNB-75): 1170 nM | GI50 (NCI-H522): 17000 nM | GI50 (EKVX): 16000 nM | GI50 (UACC-257): 14700 nM | GI50 (SK-OV-3): 17600 nM | GI50 (NCI-H460): 18000 nM | GI50 (SK-MEL-5): 16100 nM | GI50 (OVCAR-5): 15300 nM | GI50 (KM12): 14100 nM | GI50 (HL-60(TB)): 11900 nM | GI50 (CAKI-1): 14100 nM | GI50 (NCI-H322M): 16200 nM

— publication PMC9963398, “Discovery of New Quinolone-Based Diarylamides as Potent B-RAF^V600E/C-RAF Kinase Inhibitors Endowed with Promising In Vitro Anticancer Activity” (International Journal of Molecular Sciences, 2023)
